Values after ≈ are worked out from the molar mass of the structure shown. Bridge positions count the residues as written; N and C are the ends. Square brackets hold non-standard residues; d marks the D form. Peptide text beside a SMILES is read from it. * marks the point of attachment. Ileψ(thiazoline)Cys = CC[C@H](C)[C@H](N)C1=N[C@H](C(=O)*)CS1; dOrn = NCCC[C@@H](N)C(=O)O

Assay type in all cases: cell-based
Assay [1] relates to Bacillus sp. M-00-PHD-090 (CETC 4546). Kind of assay: Antibiotic sensitivity of the producing strain (PASCO Data Management System MIC Gram Positive). The conditions noted are these: 28° C., 48 hours incubation. The method, then: 5. Antibiotic Sensitivity - PASCO™ Data Management System (Difco) MIC Gram Positive
All cultures were incubated at 28° C. and records of the results were made after 48 hours incubation time. The descriptions of the culture and test results are as follows: […]

Assay [2] concerns A-549 (monolayer culture of a human lung carcinoma). The assay can be described thus: Antitumor activity: growth inhibition of A-549 cells, 3 days, Crystal Violet staining. As to conditions: for IC50: Homo sapiens, A549, 72 h, A-549, three days, 37° C., approximate IC50; for antitumour activity against A-549 human lung carcinoma: statement in words. The text has this:
(§1) An adapted form of the method described by Bergeron et al ("Antineoplastic an antiherpetic activity of spermidine catecholamide iron chelators" Biochem. Bioph. Res. Comm., 1984, 121(3), 848-854, and see also Schroeder et al, "Effects of Acyclic Pyrimidine Nucleoside Analogues" Med. Chem., 1981, 24 1078-1083) was used to determine the antitumor activity of the compounds of this invention. Three cultures of antitumour cell were employed. A-549 (monolayer culture of a human lung carcinoma, HT-29 (monolayer culture of a human colon carcinoma) and MEL-28 J (monolayer culture of a human melanoma).
(§2) A-549, HT-29 and MEL-28 were seeded into 16 mm wells at 2×20" cells per well in 1 ml aliquots of MEM 10FCS containing the identical concentration of drug. A separate set of cultures without drug was seeded a control growth to ensure that cells remained in exponential phase of growth. All determinations were carried out in duplicate. After three days of incubation at 37° C., 10% CO2 in 98% humid atmosphere, the wells were stained with 0.1% Crystal Violet. An approximate IC50 was determined by comparing growth in wells with drug to the growth in control wells.

Assay [3] deals with HT-29 (monolayer culture of a human colon carcinoma). Kind of assay: Antitumor activity: growth inhibition of HT-29 cells, 3 days, Crystal Violet staining. As to conditions: for IC50: Homo sapiens, 72 h, HT-29, three days, 37° C., approximate IC50; for antitumour activity against HT-29 human colon carcinoma: statement in words.
Text: as §1, §2

Assay [4] deals with MEL-28 (monolayer culture of a human melanoma). The assay can be described thus: Antitumor activity: growth inhibition of MEL-28 cells, 3 days, Crystal Violet staining. As to conditions: for IC50: Homo sapiens, SK-MEL-28, 72 h, MEL-28, three days, 37° C., approximate IC50; for antitumour activity against MEL-28 human melanoma: statement in words.
Text: as §1, §2

For `CO[C@@]1(NC(=O)Cc2cccs2)C(=O)N2C(C(=O)O)=C(COC(N)=O)CS[C@@H]21` [cefoxitin], in assay [1], the Antibiotic sensitivity result was “Sensitive”.

With gentamicin, the Antibiotic sensitivity entry in assay [1] is recorded as “Sensitive”. Still for that read-out and setting: as for teicoplanin, the entry is “resistant”; as for `CC1(C)S[C@@H]2[C@H](NC(=O)Cc3ccccc3)C(=O)N2[C@H]1C(=O)O` [penicillin], “Sensitive”; as for `CN(C)C1C(=O)C(C(N)=O)=C(O)C2(O)C(=O)C3=C(O)c4c(O)cccc4C(C)(O)C3CC12` (stereo not shown) [tretracycline], “Sensitive”.

`[H]/N=C(/N)N[C@H]1[C@H](O)[C@@H](O)[C@H](O[C@@H]2O[C@@H](C)[C@](O)(C=O)[C@H]2O[C@@H]2O[C@@H](CO)[C@H](O)[C@@H](O)[C@@H]2NC)[C@@H](N/C(N)=N\[H])[C@@H]1O` [streptomycin]: in assay [1], the Antibiotic sensitivity result is recorded as “Sensitive”. The same measure, in the same setting: as for `CC1(C)S[C@@H]2[C@H](NC(=O)[C@H](N)c3ccccc3)C(=O)N2[C@H]1C(=O)O` [ampicillin], the entry is “Sensitive”. The same measure, in the same setting: the value for `CC[C@H](C)[C@H](N)C1=N[C@H](C(=O)N[C@@H](CC(C)C)C(=O)N[C@H](CCC(=O)O)C(=O)N[C@H](C(=O)N[C@H]2CCCCNC(=O)[C@H](CC(N)=O)NC(=O)[C@@H](CC(=O)O)NC(=O)[C@H](Cc3cnc[nH]3)NC(=O)[C@@H](Cc3ccccc3)NC(=O)[C@H]([C@@H](C)CC)NC(=O)[C@@H](CCCN)NC2=O)[C@@H](C)CC)CS1` [bacitracin] ({Ileψ(thiazoline)Cys}-L[dE]IK[dOrn]I[dF]H[dD]N; lactam 4-C) was “resistant”. As for `CO[C@H]1/C=C/O[C@@]2(C)Oc3c(C)c(O)c4c(O)c(c(/C=N/N5CCN(C)CC5)c(O)c4c3C2=O)NC(=O)/C(C)=C\C=C\[C@H](C)[C@H](O)[C@@H](C)[C@@H](O)[C@@H](C)[C@H](OC(C)=O)[C@@H]1C` [rifampicin], the Antibiotic sensitivity entry in assay [1] is reported as “Sensitive”.

As for `CO/N=C(\C(=O)N[C@@H]1C(=O)N2C(C(=O)O)=C(COC(N)=O)CS[C@H]12)c1ccco1` [cefuroxime], in assay [1], the Antibiotic sensitivity result is “Sensitive”. The same measure, in the same setting: as for `NCC[C@H](O)C(=O)N[C@@H]1C[C@H](N)[C@@H](O[C@H]2O[C@H](CN)[C@@H](O)[C@H](O)[C@H]2O)[C@H](O)[C@H]1O[C@H]1O[C@H](CO)[C@@H](O)[C@H](N)[C@H]1O` [amikacin], the entry is “Sensitive”; as for `Cc1onc(-c2ccccc2)c1C(=O)N[C@@H]1C(=O)N2[C@@H]1SC(C)(C)[C@@H]2C(=O)O` [oxacillin], “Sensitive”; as for `N[C@@H](C(=O)N[C@@H]1C(=O)N2C(C(=O)O)=C(Cl)CS[C@H]12)c1ccccc1` [ceflactor], “Sensitive”. For the molecule `CCn1cc(C(=O)O)c(=O)c2cc(F)c(N3CCNCC3)cc21` [norfloxacin], the Antibiotic sensitivity entry in assay [1] is on record as “Sensitive”.

In the case of `C[C@@H]1O[C@@H]1P(=O)(O)O` [fosfomicin], the Antibiotic sensitivity result in assay [1] is on record as “Sensitive”. On the same count and under the same terms, as for `CC[C@H]1OC(=O)[C@H](C)[C@@H](O[C@H]2C[C@@](C)(OC)[C@@H](O)[C@H](C)O2)[C@H](C)[C@@H](O[C@@H]2O[C@H](C)C[C@H](N(C)C)[C@H]2O)[C@](C)(O)C[C@@H](C)C(=O)[C@H](C)[C@@H](O)[C@]1(C)O` [erythromycin], the entry is “Sensitive”; as for `CCn1cc(C(=O)O)c(=O)c2ccc(C)nc21` [nalidixic acid], “Sensitive”; as for `CO[C@@H]1[C@@H](OC(N)=O)[C@@H](O)[C@H](Oc2ccc3c(O)c(NC(=O)c4ccc(O)c(CC=C(C)C)c4)c(=O)oc3c2C)OC1(C)C` [novobiocin], “Sensitive”.

For the molecule `CC(C)CC(NC(=O)C(O)C(O)C(N)CC(N)=O)C1Cc2cccc(O)c2C(=O)O1` (stereo not shown) [Amicoumacin A, amicoumacin A], in assay [2], the IC50 (usually the concentration at which inhibition is half-maximal) turned out to be 0.75 µg/mL (≈ 1.77 µM) and the “antitumour activity against A-549 human lung carcinoma” value is reported as “exhibit antitumour activity”. For the same molecule, in assay [3], the IC50 turned out to be 1.5 µg/mL (≈ 3.54 µM) and the “antitumour activity against HT-29 human colon carcinoma” value is “exhibit antitumour activity”. For the same molecule, in assay [4], the IC50 is 0.15 µg/mL (≈ 0.354 µM) and the “antitumour activity against MEL-28 human melanoma” value was “exhibit antitumour activity”. In the case of `CN[C@H](CC(C)C)C(=O)N[C@H]1C(=O)N[C@@H](CC(N)=O)C(=O)N[C@H]2C(=O)N[C@H]3C(=O)N[C@H](C(=O)N[C@H](C(=O)O)c4cc(O)cc(O)c4-c4cc3ccc4O)[C@H](O)c3ccc(c(Cl)c3)Oc3cc2cc(c3O[C@@H]2O[C@H](CO)[C@@H](O)[C@H](O)[C@H]2O[C@H]2C[C@](C)(N)[C@H](O)[C@H](C)O2)Oc2ccc(cc2Cl)[C@H]1O` [vancomycin], the Antibiotic sensitivity result in assay [1] is recorded as “resistant”. Regarding `CC(C)CC(N)C(O)C(O)C(=O)NC(CC(C)C)C1Cc2cccc(O)c2C(=O)O1` (stereo not shown) [PM-94128], in assay [2], the IC50 worked out at 0.02 µg/mL (≈ 0.0473 µM) and the “antitumour activity against A-549 human lung carcinoma” value is “exhibit antitumour activity”. Besides, in assay [3], inhibition was half-maximal at 0.02 µg/mL (≈ 0.0473 µM) (IC50) and the “antitumour activity against HT-29 human colon carcinoma” value is reported as “exhibit antitumour activity”. Besides, in assay [4], the IC50 stood at 0.02 µg/mL (≈ 0.0473 µM) and the “antitumour activity against MEL-28 human melanoma” value is given as “exhibit antitumour activity”.

The values are drawn from US5925671A, “Antitumor isocoumarins” (Pharma Mar, s.a., priority 1995, dated 1999).
